{"source": "patent EP0084756A1", "about": "“Trisubstituted oxaza compounds” (CIBA-GEIGY AG, priority 1982, dated 1983)", "tested_on": "mit Crotonöl induzierten Rattenohroedems", "assay": "Croton oil-induced rat ear oedema, method of Tonelli and Thibault, local application", "assay_type": "in vivo, Normalratte", "conditions": "inhibition of croton oil-induced rat ear oedema in the normal rat", "protocol": "Diese Eigenschaft lässt sich beispielsweise nach der von G. Tonelli, L. Thibault, Endocrinology 77, 625 (1965) entwickelten Methode durch Hemmung des mit Crotonöl induzierten Rattenohroedems bei der Normalratte im Dosisbereich von etwa 1 bis etwa 100 mg/ml nachweisen.", "data": [{"compound": "CCOC(=O)Cc1nc(-c2ccccc2)c(-c2cccnc2)[nH]1", "note": "[2-[4-Phenyl-5-(3-pyridyl)-imidazol-2-yl]-essigsäureethylester]", "values": [{"measurement": "ED50-Wert", "value": 17, "unit": "mg/mL"}]}]}
